Laboratory results as given in patent publication US20060009493A1, “Indolinone hydrazides as c-Met inhibitors” (Sugen, Inc., priority 2003, published 2006).

Target: T1, GST fusion protein containing the Met kinase domain (Homo sapiens, UniProt P08581)
T1 construct: Purified GST fusion protein containing the Met kinase domain, Sugen, Inc
Experiment: MET Transphosphorylation Assay (ELISA, poly(Glu,Tyr) 4:1 substrate)
Assay type: biochemical
Details: met transphosphorylation of poly(glutamic acid:tyrosine 4:1) substrate; two values in a cell separated by '/'
Method in brief: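 Poly(Glu-Tyr)-coated wells received the GST-Met kinase domain (10 ng/well) with compound in DMSO for 15 minutes. The reaction was started with ATP/MnCl2 in HEPES pH 7.5 buffer with vanadate, run 5 minutes, and stopped with EDTA. Phosphotyrosine was detected by anti-pTyr antibody, HRP secondary and ABTS/H2O2.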

T1 sequence (P08581 1078-1345 limits assumed): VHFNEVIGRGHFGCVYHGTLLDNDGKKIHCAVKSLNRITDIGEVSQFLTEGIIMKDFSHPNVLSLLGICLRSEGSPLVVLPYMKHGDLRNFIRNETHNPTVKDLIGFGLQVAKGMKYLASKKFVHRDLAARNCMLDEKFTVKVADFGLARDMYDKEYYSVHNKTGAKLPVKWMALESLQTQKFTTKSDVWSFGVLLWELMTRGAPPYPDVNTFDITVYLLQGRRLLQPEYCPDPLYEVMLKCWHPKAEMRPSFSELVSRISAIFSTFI

`CC(C(=O)N/N=C1\C(=O)Nc2ccc(S(=O)(=O)NCCN3CCOCC3)cc21)c1ccc(O)cc1` (stereo not shown) [Example I-27, (3Z)-3-{[2-(4-Hydroxy-phenyl)-propionyl]-hydrazono}-2-oxo-2,3-dihydro-1H-indole-5-sulfonic acid (2-morpholin-4-yl-ethyl)-amide] was tested, and the IC50 was 390 nM.
